Source: patent US11690854B2, “Methods of treating heavy menstrual bleeding” (priority 2018, dated 2023)

Assays:
[1] = target: efflux transporter P-glycoprotein (P-gp) (Homo sapiens, UniProt P08183); experiment: Drug interaction potential: P-gp
Experimental: Elagolix is an inhibitor of efflux transporter P-glycoprotein (P-gp) at 200 mg BID or higher, such as 300 mg BID or 400 mg QD or 600 mg QD. Co-administration with ELAGOLIX 200 mg BID may increase plasma concentration of drugs that are substrates of P-gp.
Elagolix is a substrate of CYP3A, P-gp, and organic anion transporting polypeptide (OATP)1B1. Clinically meaningful interactions are not expected when ELAGOLIX is co-administered with drugs that inhibit CYP3A or P-gp.

[2] = Pharmacokinetics in specific populations (renal, hepatic impairment); assay type: in vivo, human; settings: for Elagolix exposures in severe hepatic impairment relative to normal hepatic function: severe hepatic impairment (Child-Pugh C)
Description: The mean exposures are similar for women with moderate to severe or end stage renal disease (including women on dialysis) compared to women with normal renal function.
Elagolix exposures (Cmax and AUC) are similar between women with normal hepatic function and women with mild hepatic impairment. Elagolix exposures in women with moderate and severe hepatic impairment are approximately 3-fold and 7-fold, respectively, of exposures from women with normal hepatic function.

[3] = test system: premenopausal women with endometriosis with associated pain; experiment: Phase 3 Studies EM-I and EM-II together, with extension studies; assay type: in vivo, human; settings: for Depressed Mood, depression, depressive symptoms and or tearfulness, %: placebo 2.3; for Mood altered, mood swings, %: placebo 3.4; for Mean Intensity score (1 = spotting to 4 = heavy) / Mean bleeding/spotting days in prior 28 days: Month 3; for Mean Intensity score (1 = spotting to 4 = heavy): placebo 2.6 to 2.4; for Mean bleeding/spotting days in prior 28 days: placebo 5.4 to 4.6; for Percentage of patients with adverse reaction: Anxiety / Percentage of patients with adverse reaction: Arthralgia / Percentage of patients with adverse reaction: Insomnia: placebo 3; for Percentage of patients with adverse reaction: Nasopharyngitis / Percentage of patients with adverse reaction: Sinusitis: placebo 4; for Percentage of patients with adverse reaction: Upper Respiratory Tract Infection: placebo 5; for Percentage of patients with adverse reaction: Hot Flush: placebo 9; for Percentage of patients with adverse reaction: Headache: placebo 12; for Percentage of patients with adverse reaction: Nausea: placebo 13; for Percentage of patients with adverse reaction: Amenorrhoea: placebo <1; for Mean increase from pretreatment baseline in HDL-C / Mean increase from pretreatment baseline in LDL-C / Mean increase from pretreatment baseline in triglycerides: 6-month treatment; for Patients who discontinued therapy due to adverse reactions: EM-I and EM-II; for Patients with Z-score below the normal lower bound of −2.0: following 12 months of treatment; for Patients with asymptomatic elevations of serum ALT to at least 3-times the upper limit of the reference range: placebo 1/696, 0.1%
Description: Each placebo-controlled study assessed the reduction in endometriosis-associated pain over 6 months of treatment. More than 75 percent of women who completed Study EM-I and EM-II enrolled in the extension studies for an additional 6 month treatment period. Subjects were followed for up to 12 months post-treatment. Women in these studies also provided a daily self-assessment of their endometriosis pain using the Numeric Rating Scale (NRS), on a scale ranging from 0 (no pain) to 10 (worst pain ever). […] The population age range was 18-49 years old. Women who completed six months of treatment and met eligibility criteria continued treatment in two blinded six-month extension studies, for a total treatment duration of up to 12 months. In the placebo-controlled and extension clinical studies, BMD was measured by DXA. Changes observed in BMD at other anatomical sites (femoral neck, total hip) were generally smaller than lumbar spine.

monkeys = experiment: Repeat-dose study in monkeys; assay type: in vivo; settings: 75, 150, 300 and 600 mg/kg/day, all doses
Description: Based on pharmacologic actions of elagolix in humans a reversible effect on fertility may be expected in women.

mice = experiment: 2-year carcinogenicity study in mice; assay type: in vivo; settings: mouse; any dose
rats = experiment: Lactation study in rats (secretion in milk); assay type: in vivo
Experimental: Pregnant rats were given diet containing elagolix throughout the gestation and lactation periods to achieve a daily elagolix dose of 400 mg/kg. During nursing the dams and litters were divided into restricted feeding and non-restricted groups to determine whether elagolix was secreted in the mother's milk. […] In pups of the non-restricted feeding group, elagolix plasma concentrations were measurable and approximately 1% of the mother's plasma concentrations.

[4] = test system: premenopausal women with HMB and UF; experiment: Phase 2b trial, post hoc subgroup with uterine fibroids and non-dominant adenomyosis; assay type: in vivo, human; settings: 6 months
Experimental: Patients and Methods: […] Elagolix studied in this clinical trial comprised the sodium salt of Compound A. All subjects were evaluated with ultrasound and a subset volunteered to also be evaluated by MRI. […] Efficacy and safety were evaluated post hoc in a subgroup of women who had confirmed non-dominant adenomyosis (ultrasound/MRI) at baseline. Menstrual blood loss (MBL) was quantified from sanitary products (alkaline hematin). […] Adverse events (AEs) were recorded.

efflux transporter P-glycoprotein (P-gp), sequence (P08183 whole entry): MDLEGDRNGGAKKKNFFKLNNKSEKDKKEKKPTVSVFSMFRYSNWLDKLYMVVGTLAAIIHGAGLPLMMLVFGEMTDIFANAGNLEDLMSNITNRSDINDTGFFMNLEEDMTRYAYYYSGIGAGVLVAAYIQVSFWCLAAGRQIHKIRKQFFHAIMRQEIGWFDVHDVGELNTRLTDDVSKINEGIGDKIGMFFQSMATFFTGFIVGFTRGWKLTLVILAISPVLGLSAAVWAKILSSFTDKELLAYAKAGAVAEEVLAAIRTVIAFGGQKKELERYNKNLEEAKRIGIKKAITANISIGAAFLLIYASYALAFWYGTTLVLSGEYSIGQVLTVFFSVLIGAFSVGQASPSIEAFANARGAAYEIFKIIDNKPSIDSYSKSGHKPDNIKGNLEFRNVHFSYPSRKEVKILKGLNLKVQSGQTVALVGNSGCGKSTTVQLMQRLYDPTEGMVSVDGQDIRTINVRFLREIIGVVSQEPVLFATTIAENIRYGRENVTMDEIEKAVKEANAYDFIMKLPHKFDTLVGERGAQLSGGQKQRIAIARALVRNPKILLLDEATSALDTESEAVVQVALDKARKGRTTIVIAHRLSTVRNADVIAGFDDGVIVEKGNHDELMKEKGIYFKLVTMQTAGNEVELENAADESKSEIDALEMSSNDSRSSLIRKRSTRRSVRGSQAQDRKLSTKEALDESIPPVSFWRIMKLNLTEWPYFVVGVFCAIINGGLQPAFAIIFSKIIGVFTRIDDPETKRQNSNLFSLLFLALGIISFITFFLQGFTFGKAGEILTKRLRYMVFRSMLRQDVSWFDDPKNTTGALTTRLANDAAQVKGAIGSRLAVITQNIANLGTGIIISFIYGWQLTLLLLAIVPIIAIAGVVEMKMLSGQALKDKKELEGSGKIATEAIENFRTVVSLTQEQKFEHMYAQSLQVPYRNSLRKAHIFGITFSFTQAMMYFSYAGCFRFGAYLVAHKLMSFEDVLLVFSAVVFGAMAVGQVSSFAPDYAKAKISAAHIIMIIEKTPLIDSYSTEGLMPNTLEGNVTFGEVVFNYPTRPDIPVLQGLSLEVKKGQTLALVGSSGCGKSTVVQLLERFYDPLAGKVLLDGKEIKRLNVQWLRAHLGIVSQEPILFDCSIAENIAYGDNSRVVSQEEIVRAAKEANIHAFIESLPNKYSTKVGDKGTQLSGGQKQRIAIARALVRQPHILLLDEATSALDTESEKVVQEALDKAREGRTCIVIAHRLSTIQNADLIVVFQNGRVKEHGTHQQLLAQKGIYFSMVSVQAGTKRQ

COc1cccc(-c2c(C)n(Cc3c(F)cccc3C(F)(F)F)c(=O)n(C[C@H](NCCCC(=O)O)c3ccccc3)c2=O)c1F [Elagolix, 4-((R)-2-[5-(2-fluoro-3-methoxy-phenyl)-3-(2-fluoro-6-trifluoromethyl-benzyl)-4-methyl-2,6-dioxo-3,6-dihydro-2H-pyrimidin-1-yl]-1-phenyl-ethylamino)-butyric acid]
Substrate of P-gp [1]: substrate
Inhibition of P-gp ([1]; at 200 mg BID or higher, such as 300 mg BID or 400 mg QD or 600 mg QD): inhibitor
Elagolix exposures in moderate hepatic impairment relative to normal hepatic function ([2]; moderate hepatic impairment (Child-Pugh B)): approximately 3 fold
Elagolix exposures (Cmax and AUC) in renal impairment ([2]; moderate to severe or end stage renal disease vs normal renal function): not altered by renal impairment
Elagolix exposures in severe hepatic impairment relative to normal hepatic function [2]: ~7 fold
Elagolix exposures in severe hepatic impairment relative to normal hepatic function ([2]; listed as elagolix): approximately 7 fold
Elagolix exposures (Cmax and AUC) in mild hepatic impairment ([2]; vs women with normal hepatic function): similar
Completed Suicide, % ([3]; 150 mg Once Daily (N = 475)): (0.2) %
Suicidal ideation, % ([3]; 150 mg Once Daily (N = 475)): (0.2) %
Depressed Mood, depression, depressive symptoms and or tearfulness, % ([3]; 150 mg Once Daily (N = 475)): (2.7) %
Mood altered, mood swings, % ([3]; 150 mg Once Daily (N = 475)): (5.7) %
Mean Intensity score (1 = spotting to 4 = heavy) ([3]; 150 mg Once Daily, baseline 2.6): 2.2
Mean bleeding/spotting days in prior 28 days ([3]; 150 mg Once Daily, baseline 5.3): 2.8 days
Discontinuations due to hot flush ([3]; 150 mg QD): 0.8%
Discontinuations due to nausea ([3]; 150 mg QD): 0.8%
Numeric Rating Scale (NRS) endometriosis pain scores ([3]; 150 mg QD and 200 mg BID, Month 3 and Month 6): highly statistically (p<0.001) significant reduction in NRS scores compared to placebo
Percentage of patients with adverse reaction: Anxiety ([3]; 150 mg QD, N = 475): 3%
Percentage of patients with adverse reaction: Arthralgia ([3]; 150 mg QD, N = 475): 3%
Percentage of patients with adverse reaction: Insomnia ([3]; 150 mg QD, N = 475): 6%
Percentage of patients with adverse reaction: Nasopharyngitis ([3]; 150 mg QD, N = 475): 6%
Percentage of patients with adverse reaction: Sinusitis ([3]; 150 mg QD, N = 475): 5%
Percentage of patients with adverse reaction: Upper Respiratory Tract Infection ([3]; 150 mg QD, N = 475): 6%
Percentage of patients with adverse reaction: Hot Flush ([3]; 150 mg QD, N = 475): 23%
Percentage of patients with adverse reaction: Headache ([3]; 150 mg QD, N = 475): 17%
Percentage of patients with adverse reaction: Nausea ([3]; 150 mg QD, N = 475): 11%
Percentage of patients with adverse reaction: Amenorrhoea ([3]; 150 mg QD, N = 475): 4%
Mean increase from pretreatment baseline in HDL-C ([3]; 150 mg QD): 2.24 mg/dL
Mean increase from pretreatment baseline in LDL-C ([3]; 150 mg QD): 5.25 mg/dL
Mean increase from pretreatment baseline in triglycerides ([3]; 150 mg QD): 0.42 mg/dL
Patients who discontinued therapy due to adverse reactions ([3]; 150 mg QD): 5.5%
% Subjects with lumbar spine Z-score ≤−1.5 ([3]; 150 mg QD, on treatment Month 6, N 360): 0.8%
Mean Percent Change from baseline in lumbar spine bone mineral density ([3]; 150 mg QD, on treatment Month 6, N 360, 95% CI −0.79, −0.26): −0.52%
% Subjects with lumbar spine Z-score ≤−1.5 ([3]; 150 mg QD, on treatment Month 12, N 235): 1.3%
Mean Percent Change from baseline in lumbar spine bone mineral density ([3]; 150 mg QD, on treatment Month 12, N 235, 95% CI −1.29, −0.45): −0.87%
Estradiol level (suppression to) ([3]; 150 mg QD, partial suppression): approximately 50 pg/mL
Patients with Z-score below the normal lower bound of −2.0 ([3]; 150 mg daily dose): no patient
Patients with asymptomatic elevations of serum ALT to at least 3-times the upper limit of the reference range ([3]; 150 mg once daily, 1/450): 0.2%
Incidence of amenorrhea (no bleeding or spotting in a 56-day interval) ([3]; 150 mg once daily, first six months of treatment, placebo less than 1%): 6-17%
Incidence of amenorrhea (no bleeding or spotting in a 56-day interval) ([3]; 150 mg once daily, second 6 months of treatment): 11-15%
Discontinuations due to hot flush ([3]; 200 mg BID): 2.5%
Discontinuations due to nausea ([3]; 200 mg BID): 1.5%
Percentage of patients with adverse reaction: Anxiety ([3]; 200 mg BID, N = 477): 5%
Percentage of patients with adverse reaction: Arthralgia ([3]; 200 mg BID, N = 477): 5%
Percentage of patients with adverse reaction: Insomnia ([3]; 200 mg BID, N = 477): 9%
Percentage of patients with adverse reaction: Nasopharyngitis ([3]; 200 mg BID, N = 477): 6%
Percentage of patients with adverse reaction: Sinusitis ([3]; 200 mg BID, N = 477): 6%
Percentage of patients with adverse reaction: Upper Respiratory Tract Infection ([3]; 200 mg BID, N = 477): 4%
Percentage of patients with adverse reaction: Hot Flush ([3]; 200 mg BID, N = 477): 45%
Percentage of patients with adverse reaction: Headache ([3]; 200 mg BID, N = 477): 20%
Percentage of patients with adverse reaction: Nausea ([3]; 200 mg BID, N = 477): 16%
Percentage of patients with adverse reaction: Amenorrhoea ([3]; 200 mg BID, N = 477): 7%
Mean increase from pretreatment baseline in HDL-C ([3]; 200 mg BID): 4.16 mg/dL
Mean increase from pretreatment baseline in LDL-C ([3]; 200 mg BID): 13.10 mg/dL
Mean increase from pretreatment baseline in triglycerides ([3]; 200 mg BID): 11.08 mg/dL
Patients who discontinued therapy due to adverse reactions ([3]; 200 mg BID): 9.6%
Percent change from baseline of averaged daily opioid pills (FIG. A-5) ([3]; 200 mg BID, compared with placebo): significant decrease from baseline in the percent change of averaged daily opioid pills at Months 3 through 6
Patients with Z-score below the normal lower bound of −2.0 ([3]; 200 mg BID): less than 1%
Estradiol level (suppression to) ([3]; 200 mg BID, nearly full suppression): approximately 12 pg/mL
% Subjects with lumbar spine Z-score ≤−1.5 ([3]; 200 mg BID, on treatment Month 6, N 365): 4.1%
Mean Percent Change from baseline in lumbar spine bone mineral density ([3]; 200 mg BID, on treatment Month 6, N 365, 95% CI −2.81, −2.28): −2.54%
% Subjects with lumbar spine Z-score ≤−1.5 ([3]; 200 mg BID, on treatment Month 12, N 217): 5.1%
Mean Percent Change from baseline in lumbar spine bone mineral density ([3]; 200 mg BID, on treatment Month 12, N 217, 95% CI −4.19, −3.32): −3.76%
Suicidal ideation, % ([3]; 200 mg Twice Daily (N = 477)): (0.2) %
Depressed Mood, depression, depressive symptoms and or tearfulness, % ([3]; 200 mg Twice Daily (N = 477)): (6.1) %
Mood altered, mood swings, % ([3]; 200 mg Twice Daily (N = 477)): (5.2) %
Mean Intensity score (1 = spotting to 4 = heavy) ([3]; 200 mg Twice Daily, baseline 2.5): 2.0
Mean bleeding/spotting days in prior 28 days ([3]; 200 mg Twice Daily, baseline 5.7): 0.8 days
Patients with asymptomatic elevations of serum ALT to at least 3-times the upper limit of the reference range ([3]; 200 mg twice daily, 5/443): 1.1%
Incidence of amenorrhea (no bleeding or spotting in a 56-day interval) ([3]; 200 mg twice daily, first six months of treatment, placebo less than 1%): 13-52%
Incidence of amenorrhea (no bleeding or spotting in a 56-day interval) ([3]; 200 mg twice daily, second 6 months of treatment): 46-57%
Percentage of days in which rescue opioid medication was taken ([3]; 150 QD and 200 BID, pooled analysis, compared with placebo): significant reduction in the percentage of days in which rescue opioid medication was taken
Mean decreases from Baseline in dysmenorrhea scores ([3]; both treatment groups (150 mg QD, 200 mg BID)): statistically significantly greater than placebo beginning at Month 1 and persisted through Month 6
BMD after stopping treatment ([3]; both treatment groups, lumbar spine, total hip and femoral neck, post-treatment months 6 and 12): progressive recovery of BMD
Durability of improvement in extension studies EM-III and EM-IV ([3]; patients maintained on their dose): durability of improvement in dysmenorrhea, NMPP and dyspareunia was demonstrated for a total of 12 months
Reproductive organ findings in repeat-dose study (monkeys): reversible atrophy of reproductive organs (cervix, uterus and vagina)
Tumors in 2-year carcinogenicity study (mice): no increase in tumors
Elagolix plasma concentrations in pups relative to the mother's plasma concentrations (rats; non-restricted feeding group, dams 400 mg/kg daily in diet): approximately 1%
Secretion in milk (rats; rats, pup plasma as surrogate of exposure via lactation): minimally secreted in milk
Elagolix plasma concentrations in pups (rats; restricted feeding litters, post natal day 10 and 20, dams 400 mg/kg daily in diet): not measurable
Proportion of women with ≥50% reduction from baseline in HMB and <80 mL MBL in the last 28 days of treatment ([4]; Cohort 1 (300 mg BID, with or without E2/NETA), placebo 40% (n=10)): 80%
Proportion of women with ≥50% reduction from baseline in HMB and <80 mL MBL in the last 28 days of treatment ([4]; Cohort 2 (600 mg QD, with or without E2/NETA), placebo 13% (n=16)): 92%
